# Test results as given in publication PMC7613515, “Reading and erasing of the phosphonium analogue of trimethyllysine by epigenetic proteins” (Communications Chemistry, 2022).
# Entries after “also recorded” stand apart in the source; their conditions may differ.
# Tests used:
# KDM4EJmjC (M1–Q337) = biological target: T1, KDM4EJmjC (M1–Q337) (Homo sapiens, UniProt B2RXH2); assay: FDH coupled demethylation assay (formaldehyde release), KDM4EJmjC; format: biochemical; conditions: KDM4EJmjC 0–10 µM, H3KP9me3 10 µM; n = 3 or 4
# T1 construct: We chose human KDM4EJmjC (M1–Q337); made in house
# T1 sequence (B2RXH2 1-337): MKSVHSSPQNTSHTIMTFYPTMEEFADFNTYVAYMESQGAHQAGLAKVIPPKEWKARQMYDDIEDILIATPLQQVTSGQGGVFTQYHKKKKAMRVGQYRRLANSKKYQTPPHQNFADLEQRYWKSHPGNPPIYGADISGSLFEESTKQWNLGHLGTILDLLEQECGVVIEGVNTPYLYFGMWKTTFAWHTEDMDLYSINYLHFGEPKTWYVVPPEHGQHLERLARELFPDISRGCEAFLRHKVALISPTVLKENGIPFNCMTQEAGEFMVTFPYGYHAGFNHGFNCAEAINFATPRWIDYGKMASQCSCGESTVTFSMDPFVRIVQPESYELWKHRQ
# Protocol: To test whether formaldehyde is generated by H3KP9me3 demethylation, a formaldehyde dehydrogenase (FDH) coupled assay was employed (Supplementary Fig. 19a)[34],[37]. […]
# measurement of the formation of NADH. a FDH enzyme coupled to KDM4E JmjC demethylation assay measuring the levels of […]
# (0–50 µM). c Michaelis-Menten analysis. Standard conditions: FDH (1.0 µM), Asc (1.0 mM), Fe(II) (50 µM), 2OG (200 µM) and NAD+ (250 µM). Errors are standard deviations of the mean (n = 2 or 3).
# (1 picture or pasted object on this page, not shown here)
# Supplementary Fig. 20 FDH activity assay of KDM4E JmjC (0–10 µM) catalysed demethylation of H3K P9me 3 (10 µM) […]
# Standard conditions: FDH (1.0 µM), Ascorbate (1.0 mM), Fe(II) (50 µM), 2OG (200 µM) and NAD + (250 µM). Errors are standard deviations of the mean (n = 3 or 4).
# KDM4AJmjC (M1–L359) = assay: MALDI-TOF demethylation assay, KDM4AJmjC; format: biochemical, human; conditions: KDM4AJmjC 2.4 µM, peptide 5.0 µM, 1 hr, duplicates
# Text: To investigate whether H3KP9me3 can be demethylated by other human KDM4 subfamily members, recombinant KDM4AJmjC (M1–L359) and KDM4DJmjC (M1–L358) were produced in E. coli following an adaption of literature procedures[38],[39]. […] To test the ability of KDM3 and KDM7 subfamily representatives to demethylate H3KP9me2 or H3KP9me3, KDM3AJmjC (T515–S1317) and KDM7BJmjC (M37–N483) were produced using baculovirus/sf9 and E. coli expression systems, respectively[40],[41]. The synthesis of a histone H3 mimic peptide H3KP9me2 substrate is challenging as the tri-alkylated phosphine group is susceptible to oxidation during synthesis of the protected amino acid and during SPPS requiring oxygen-free conditions. Thus, to investigate if KDM3AJmjC or KDM7BJmjC can catalyse demethylation of H3KP9me2, an appropriate H3KP9me2 substrate was prepared in situ from H3KP9me3 using KDM4EJmjC (2.0 µM), in the presence of KDM3AJmjC (2.0 µM) or KDM7BJmjC (2.0 µM).
# A Bruker Daltonics MALDI-TOF/TOF AutoflexSpeed machine and Bruker MTP 384 target plates (polished steel BC, Part: 8280781) were used. The machine was controlled using Flex control (v. 3.4 build 135.10) and Compass for flex series (v. 1.4) software. Measurements were in the positive ion mode with the reflectron mode enabled. […] Samples were then analysed by MALDI-TOF. […]
substance,measurement,setting,value
"ARTKQTAR(KPme3)STGGKA [H3KP9me3, histone H3 residues 1–15 with trimethylphosphonium lysine analogue at position 9]",formaldehyde release,KDM4EJmjC (M1–Q337),in an enzyme dependent manner that releases formaldehyde; also recorded: time-dependent increase in formaldehyde
same,demethylation,KDM4AJmjC (M1–L359),substantial turnover to H3KP9me2
